≈ marks a conversion by molar mass, not a printed value. Calls of active or inactive are those of the source. The calls are words filed in the database; no cut-off is given here.
Legend:
Plasmodium falciparum [1] = test: Antimalarial activity against chloroquine-susceptible, pyrimethamine-resistant Plasmodium falciparum Malayan Camp infected in Aotus trivirgatus owl monkey model assessed as cure from parasite infection at >2.5 mg/kg, po qd for 7 days relative to control; type: functional
Plasmodium falciparum [2] = test: Antimalarial activity against pyrimethamine-sensitive Plasmodium falciparum Vietnam Oak Knoll infected in Aotus trivirgatus owl monkey model assessed as cure from parasite infection at 0.098 to 1.56 mg/kg, po qd for 7 days relative to control; type: functional; details: dose mg/kg 0.098-1.56
Plasmodium falciparum [3] = test: Antimalarial activity against pyrimethamine-sensitive Plasmodium falciparum Vietnam Oak Knoll infected in Aotus trivirgatus owl monkey model assessed as cure from parasite infection at 0.6 mg/kg, po qd for 7 days relative to control; type: functional
Plasmodium gallinaceum [4] = test: Antimalarial activity against sporozoite-induced Plasmodium gallinaceum infected in white leghorn chicken assessed as disease cure from parasite infection at 320 mg/kg, sc administered 72 hrs after infection; type: functional, organism-based; set-up: dose 320 mg/kg
Plasmodium gallinaceum [5] = test: Antimalarial activity against sporozoite-induced Plasmodium gallinaceum infected in white leghorn chicken assessed as disease cure from parasite infection at 160 mg/kg, sc administered 72 hrs after infection; type: functional, organism-based; set-up: dose 160 mg/kg
Plasmodium gallinaceum [6] = test: Antimalarial activity against sporozoite-induced Plasmodium gallinaceum infected in white leghorn chicken assessed as disease cure from parasite infection at 80 mg/kg, sc administered 72 hrs after infection; type: functional, organism-based; set-up: dose 80 mg/kg
Plasmodium gallinaceum [7] = test: Antimalarial activity against sporozoite-induced Plasmodium gallinaceum infected in white leghorn chicken assessed as disease cure from parasite infection at 40 mg/kg, sc administered 72 hrs after infection; type: functional, organism-based; set-up: dose 40 mg/kg
Plasmodium gallinaceum [8] = test: Antimalarial activity against sporozoite-induced Plasmodium gallinaceum infected in white leghorn chicken assessed as disease cure from parasite infection at 20 mg/kg, sc administered 72 hrs after infection; type: functional, organism-based; set-up: dose 20 mg/kg
Plasmodium gallinaceum [9] = test: Antimalarial activity against sporozoite-induced Plasmodium gallinaceum infected in white leghorn chicken assessed as increase in mean survival days of host at 10 mg/kg, sc administered 72 hrs after infection relative to control; type: functional; details: route subcutaneous
Plasmodium gallinaceum [10] = test: Antimalarial activity against sporozoite-induced Plasmodium gallinaceum infected in white leghorn chicken assessed as disease cure from parasite infection at 10 mg/kg, sc administered 72 hrs after infection; type: functional, organism-based; set-up: dose 10 mg/kg
Plasmodium berghei [11] = test: Antimalarial activity against Plasmodium berghei infected in mouse assessed as increase in mean survival days of host at 40 mg/kg, sc administered 72 hrs after infection relative to control; type: functional; details: route subcutaneous
Plasmodium berghei [12] = test: Antimalarial activity against Plasmodium berghei infected in mouse assessed as increase in mean survival days of host at 20 mg/kg, sc administered 72 hrs after infection relative to control; type: functional; details: route subcutaneous
Plasmodium berghei [13] = test: Antimalarial activity against Plasmodium berghei infected in mouse assessed as increase in mean survival days of host at 10 mg/kg, sc administered 72 hrs after infection relative to control; type: functional; details: route subcutaneous
Plasmodium falciparum [14] = test: Antimalarial activity against chloroquine-susceptible, pyrimethamine-resistant Plasmodium falciparum Malayan Camp infected in Aotus trivirgatus owl monkey model assessed as cure from parasite infection at 0.39 to 5 mg/kg, po qd for 7 days relative to control; type: functional; details: dose mg/kg 0.39-5
Plasmodium berghei [15] = test: Antimalarial activity against Plasmodium berghei infected in mouse assessed as increase in mean survival days of host at 5 mg/kg, sc administered 72 hrs after infection relative to control; type: functional; details: route subcutaneous
Plasmodium berghei [16] = test: Antimalarial activity against Plasmodium berghei infected in mouse assessed as increase in mean survival days of host at 2.5 mg/kg, sc administered 72 hrs after infection relative to control; type: functional; details: route subcutaneous
Plasmodium berghei [17] = test: Antimalarial activity against Plasmodium berghei infected in mouse assessed as increase in mean survival days of host at 1.25 mg/kg, sc administered 72 hrs after infection relative to control; type: functional; details: route subcutaneous
Plasmodium berghei [18] = test: Antimalarial activity against Plasmodium berghei infected in mouse assessed as disease cure from parasite infection at 640 mg/kg, sc administered 72 hrs after infection; type: functional, organism-based; set-up: dose 640 mg/kg
Plasmodium berghei [19] = test: Antimalarial activity against Plasmodium berghei infected in mouse assessed as disease cure from parasite infection at 320 mg/kg, sc administered 72 hrs after infection; type: functional, organism-based; set-up: dose 320 mg/kg
Plasmodium berghei [20] = test: Antimalarial activity against Plasmodium berghei infected in mouse assessed as disease cure from parasite infection at 160 mg/kg, sc administered 72 hrs after infection; type: functional, organism-based; set-up: dose 160 mg/kg
Plasmodium berghei [21] = test: Antimalarial activity against Plasmodium berghei infected in mouse assessed as disease cure from parasite infection at 80 mg/kg, sc administered 72 hrs after infection; type: functional, organism-based; set-up: dose 80 mg/kg
Plasmodium berghei [22] = test: Antimalarial activity against Plasmodium berghei infected in mouse assessed as disease cure from parasite infection at 40 mg/kg, sc administered 72 hrs after infection; type: functional, organism-based; set-up: dose 40 mg/kg
Plasmodium gallinaceum [23] = test: Antimalarial activity against trophozoite-induced Plasmodium gallinaceum infected in white leghorn chicken assessed as increase in mean survival days of host at 160 mg/kg, sc administered 72 hrs after infection relative to control; type: functional; details: route subcutaneous
Enterococcus faecalis = test: Antibacterial activity against Streptococcus faecalis MGH-2 by gradient plate test; type: functional
Staphylococcus aureus [24] = test: Antibacterial activity against Staphylococcus aureus UC-96 by gradient plate test; type: functional
Staphylococcus aureus [25] = test: Antibacterial activity against drug-resistant Staphylococcus aureus S18713 by gradient plate test; type: functional
Pseudomonas aeruginosa = test: Antibacterial activity against Pseudomonas aeruginosa 28 by gradient plate test; type: functional
Escherichia coli = test: Antibacterial activity against Escherichia coli Vogel by gradient plate test; type: functional
Shigella sonnei = test: Antibacterial activity against Shigella sonnei C-10 by gradient plate test; type: functional
[26] = tested on: Mycobacterium tuberculosis; test: Antibacterial activity against Mycobacterium tuberculosis H37Ra by gradient plate test; type: functional
Plasmodium berghei [27] = test: Antimalarial activity against Plasmodium berghei infected in mouse assessed as increase in mean survival days of host at 640 mg/kg, sc administered 72 hrs after infection relative to control; type: functional; details: route subcutaneous
Plasmodium berghei [28] = test: Antimalarial activity against Plasmodium berghei infected in mouse assessed as increase in mean survival days of host at 160 mg/kg, sc administered 72 hrs after infection relative to control; type: functional; details: route subcutaneous
Gallus gallus = test: Toxicity in sporozoite-induced Plasmodium gallinaceum infected white leghorn chicken assessed as mortality at 320 mg/kg, sc administered 72 hrs after infection measured up to 6 days; type: organism-based; set-up: dose 320 mg/kg, route subcutaneous; details: in vivo
Plasmodium gallinaceum [29] = test: Antimalarial activity against sporozoite-induced Plasmodium gallinaceum infected in white leghorn chicken assessed as increase in mean survival days of host at 20 mg/kg, sc administered 72 hrs after infection relative to control; type: functional; details: route subcutaneous
Plasmodium berghei [30] = test: Antimalarial activity against Plasmodium berghei infected in mouse assessed as disease cure from parasite infection at 20 mg/kg, sc administered 72 hrs after infection; type: functional, organism-based; set-up: dose 20 mg/kg
Plasmodium berghei [31] = test: Antimalarial activity against trophozoite-induced Plasmodium berghei infected in mouse assessed as daily dose required to suppression of 90% parasite infection administered with diet for 6 days; type: functional
Plasmodium berghei [32] = test: Ratio of quinine hydrochloride SD90 to compound SD90 for trophozoite-induced Plasmodium berghei infected in mouse assessed as daily dose required to suppression of 90% parasite infection administered with diet for 6 days; type: functional

SMILES | Activity (Plasmodium gallinaceum [4]) | Activity (Plasmodium gallinaceum [5]) | Activity (Plasmodium gallinaceum [6]) | Activity (Plasmodium gallinaceum [7]) | Activity (Plasmodium gallinaceum [8]) | MST (Plasmodium gallinaceum [9]) [days] | Activity (Plasmodium gallinaceum [10]) | MST (Plasmodium berghei [11]) [days] | MST (Plasmodium berghei [12]) [days] | MST (Plasmodium berghei [13]) [days] | MST (Plasmodium berghei [15]) [days] | MST (Plasmodium berghei [16]) [days] | MST (Plasmodium berghei [17]) [days] | Activity (Plasmodium berghei [18]) | Activity (Plasmodium berghei [19]) | Activity (Plasmodium berghei [20]) | Activity (Plasmodium berghei [21]) | Activity (Plasmodium berghei [22]) | MIC (Enterococcus faecalis) [µg/mL] | MIC (Staphylococcus aureus [24]) [µg/mL] | other results
Nc1nc(N)c2cc(Sc3cccc(C(F)(F)F)c3)ccc2n1 [WR-159412] | Active | Active | Active | Active | Active | 7.3 | Active | 14.9 | 12.7 | 9.1 | 8.7 | 2.7 | 0.5 | Active | Active | Active | Active | Active |  |  | Activity (Plasmodium falciparum [1]): >50%; Activity (Plasmodium falciparum [2]): >50%; Activity (Plasmodium falciparum [3]): >50%; Activity (Plasmodium falciparum [14]): >50%; MST (Plasmodium gallinaceum [23]): 15.4 days
Nc1nc(N)c2c(Cl)c(Sc3ccccc3)ccc2n1 |  |  |  |  |  |  |  | 4.7 | 3.9 |  |  |  |  | Active |  |  |  |  | < 0.25 | < 0.25 | MIC (Staphylococcus aureus [25]): < 0.25 µg/mL; MIC (Pseudomonas aeruginosa): > 25 µg/mL; MIC (Escherichia coli): < 0.25 µg/mL; MIC (Shigella sonnei): < 0.25 µg/mL; MIC [26]: 10 µg/mL (≈ 33 µM); MST (Plasmodium berghei [27]): 9.9 days; MST (Plasmodium berghei [28]): 13.9 days
COc1ccc(Sc2ccc3nc(N)nc(N)c3c2)cc1 | Active | Active | Active | Active | Active | 2.2 | Active |  |  | 9.6 | 4.8 | 3.8 | 2.2 | Active | Active | Active | Active | Active | < 0.25 | < 0.25 | MIC (Staphylococcus aureus [25]): < 0.25 µg/mL; MIC (Pseudomonas aeruginosa): > 25 µg/mL; MIC (Escherichia coli): < 0.25 µg/mL; MIC (Shigella sonnei): 1.5 µg/mL (≈ 5.03 µM); Activity (Gallus gallus): Toxic; MST (Plasmodium gallinaceum [29]): 3.2 days; Activity (Plasmodium berghei [30]): Active; SD90 (Plasmodium berghei [31]): 1.2 mg/kg/day; Ratio (Plasmodium berghei [32]): 62

— ChEMBL document CHEMBL3272271, “Folate antagonists. 13. 2,4-Diamino-6-](alpha,alpha,alpha-trifluoro-m-tolyl)thio]quinazoline and related 2,4-diamino-6-[(phenyl- and naphthyl)thio]quinazolines, a unique class of antimetabolites with extraordinary antimalarial and antibacterial effects” (J Med Chem, 1978)
